# US20250313563A1, “GLYCOGEN SYNTHASE KINASE 3 INHIBITORS AND USES THEREOF” (The Broad Institute, Inc., priority 2022, published 2025)
# Where two headings read alike, the source gives them in different places.
# Tests used:
# [1] = target: GSK3α (GST-full length GSK3α) (Homo sapiens (Human), UniProt P49840); test: GSK3α TR-FRET kinase assay; assay type: biochemical
# How it was run: (§1)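 IC50s came from the normalized 665/615 TR-FRET ratio after Tb-anti-pSer641 antibody and streptavidin-d2 detection of phosphorylated biotin-glycogen synthase peptide (200 nM). ATP was 4 μM for GSK3α, 2 μM for GSK3b, or 1 mM; 1 nM enzyme, 100 min, ambient, pH 7.5, after 30-min compound preincubation.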
# [2] = target: GSK3b (GST-full length GSK3b) (Homo sapiens (Human), UniProt P49841); test: GSK3b TR-FRET kinase assay; assay type: biochemical
# Sequence of GSK3b (GST-full length GSK3b) (P49841 whole entry): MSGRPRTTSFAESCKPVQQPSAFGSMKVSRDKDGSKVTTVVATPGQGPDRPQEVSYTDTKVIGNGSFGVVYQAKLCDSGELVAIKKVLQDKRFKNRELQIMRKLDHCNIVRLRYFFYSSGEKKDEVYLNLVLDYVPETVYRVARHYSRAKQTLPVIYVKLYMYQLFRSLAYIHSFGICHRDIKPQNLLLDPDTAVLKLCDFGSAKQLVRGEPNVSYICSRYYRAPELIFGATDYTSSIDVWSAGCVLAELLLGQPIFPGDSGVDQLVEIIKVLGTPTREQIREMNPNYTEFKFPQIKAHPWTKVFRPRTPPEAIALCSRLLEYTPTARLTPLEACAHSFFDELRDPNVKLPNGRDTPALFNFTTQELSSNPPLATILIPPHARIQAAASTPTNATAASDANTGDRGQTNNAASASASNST
# How it was run: as §1
# [3] = 1 nM GSK3α, 4 μM ATP, 30 minute preincubation, geometric mean, read-out: GSK3-A TR-FRET BIOCHEMICAL (TR-FRET), GMean, IC50
# [4] = 1 nM GSK3b, 2 μM ATP, 30 minute preincubation, geometric mean, read-out: GSK3-B TR-FRET BIOCHEMICAL (TR-FRET), GMean, IC50
# [5] = 1 nM GSK3α, 4 μM ATP, 30 minute preincubation, Table 16, read-out: GSK3-A TR-FRET BIOCHEMICAL (TR-FRET)
# [6] = 1 nM GSK3b, 2 μM ATP, 30 minute preincubation, Table 16, read-out: GSK3-B TR-FRET BIOCHEMICAL (TR-FRET)
# [7] = read-out: GSK3-A (TR-FRET 1 mM ATP), GMean, IC50, 1 mM ATP, geometric mean
# [8] = read-out: GSK3-B (TR-FRET 1 mM ATP), GMean, IC50, 1 mM ATP, geometric mean
# [9] = 1 nM GSK3α, 4 μM ATP, 30 minute preincubation, Table 16, read-out: GSK3-A TR-FRET BIOCHEMICAL (TR-FRET), IC50
# [10] = 1 nM GSK3b, 2 μM ATP, 30 minute preincubation, Table 16, read-out: GSK3-B TR-FRET BIOCHEMICAL (TR-FRET), IC50
# Sequence of GSK3α (GST-full length GSK3α) (P49840 whole entry): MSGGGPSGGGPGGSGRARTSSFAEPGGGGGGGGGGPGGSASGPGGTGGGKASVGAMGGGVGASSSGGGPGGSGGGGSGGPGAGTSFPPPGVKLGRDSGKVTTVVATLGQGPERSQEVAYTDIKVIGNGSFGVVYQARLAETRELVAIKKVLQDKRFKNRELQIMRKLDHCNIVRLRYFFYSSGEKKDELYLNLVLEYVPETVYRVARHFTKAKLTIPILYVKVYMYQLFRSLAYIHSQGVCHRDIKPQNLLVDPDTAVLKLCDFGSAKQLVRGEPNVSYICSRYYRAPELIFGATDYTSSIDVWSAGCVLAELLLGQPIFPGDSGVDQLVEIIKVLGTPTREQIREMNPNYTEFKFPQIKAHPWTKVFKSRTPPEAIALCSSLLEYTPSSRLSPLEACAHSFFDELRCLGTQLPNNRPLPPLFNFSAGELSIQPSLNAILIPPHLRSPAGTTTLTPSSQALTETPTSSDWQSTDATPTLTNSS
SMILES,"IC50 [1, 3]","IC50 [2, 4]","IC50 [1, 7]","IC50 [2, 8]",further results
CCC1(c2cccc(C(F)(F)F)c2)C2=C(CCN(c3cnc(OC)nc3)C2=O)Nc2n[nH]c(C)c21 (centres unmarked) [Compound 949126],≤ 100 nM,100 to 1000 nM,,,
CC[C@]1(c2cccc(C(F)(F)F)c2)C2=C(CCN(c3cnc(OC)nc3)C2=O)Nc2n[nH]cc21 [Compound 949127],1000 to 5000 nM,> 5000 nM,,,
CCC1(c2cccc(C(F)(F)F)c2)C2=C(CCN(c3ccccc3C)C2=O)Nc2n[nH]cc21 (centres unmarked) [Compound 949128],≤ 100 nM,100 to 1000 nM,,,
CC[C@]1(c2cccc(C(F)(F)F)c2)C2=C(CCN(c3ccccc3C)C2=O)Nc2n[nH]cc21 [Compound 949129],> 5000 nM,> 5000 nM,,,
CCC1(c2cccc(C3CN(C(C)=O)C3)c2)C2=C(CC(C)(C)CC2=O)Nc2n[nH]cc21 (centres unmarked) [Compound 949131],,,,,"IC50 [1, 5]: 100 to 1000 nM; IC50 [2, 6]: 1000 to 5000 nM"
CC[C@]1(c2cccc(C3CN(C(C)=O)C3)c2)C2=C(CC(C)(C)CC2=O)Nc2n[nH]cc21 [Compound 949132],,,,,"IC50 [1, 5]: > 5000 nM; IC50 [2, 6]: > 5000 nM"
CCC1(c2cccc(-c3ccnc(C)c3)c2)C2=C(CC(C)(C)NC2=O)Nc2n[nH]c(C(F)F)c21 (centres unmarked) [Compound 949169],≤ 100 nM,≤ 100 nM,100 to 1000 nM,1000 to 5000 nM,
CCC1(c2cccc(-c3cn(C)nc3C)c2)C2=C(CC(C)(C)NC2=O)Nc2n[nH]c(C(F)F)c21 (centres unmarked) [Compound 949170],≤ 100 nM,≤ 100 nM,,,
CCC1(c2cccc(-c3cnn(C)c3)c2)C2=C(CC(C)(C)NC2=O)Nc2n[nH]c(C(F)F)c21 (centres unmarked) [Compound 949171],≤ 100 nM,≤ 100 nM,≤ 100 nM,1000 to 5000 nM,
CCC1(c2cccc(C(C)C)c2)C2=C(CC(C)(C)NC2=O)Nc2n[nH]c(C)c21 (centres unmarked) [Compound 949173],≤ 100 nM,≤ 100 nM,,,
CCC1(c2cccc(-c3cc(C)nnc3C)c2)C2=C(CC(C)(C)NC2=O)Nc2n[nH]c(C(F)(F)F)c21 (centres unmarked) [Compound 949174],≤ 100 nM,≤ 100 nM,100 to 1000 nM,100 to 1000 nM,
CC[C@]1(c2cccc(S(=O)(=O)CC3CC3)c2)C2=C(CC(C)(C)NC2=O)Nc2n[nH]c(C(F)(F)F)c21 [Compound 949175],≤ 100 nM,≤ 100 nM,≤ 100 nM,≤ 100 nM,
CC[C@]1(c2cccc(S(=O)(=O)C3CC3)c2)C2=C(CC(C)(C)N(C)C2=O)Nc2n[nH]cc21 [Compound 949177],≤ 100 nM,≤ 100 nM,100 to 1000 nM,1000 to 5000 nM,
CC[C@@]1(c2cccc(S(=O)(=O)C3CC3)c2)C2=C(CC(C)(C)N(C)C2=O)Nc2n[nH]cc21 [Compound 949184],,,,,"IC50 [1, 9]: 1000 to 5000 nM; IC50 [2, 10]: > 5000 nM"
CC[C@@]1(c2cccc(S(=O)(=O)CC3CC3)c2)C2=C(CC(C)(C)NC2=O)Nc2n[nH]c(C(F)(F)F)c21 [Compound 949186],,,,,"IC50 [1, 9]: 100 to 1000 nM; IC50 [2, 10]: 100 to 1000 nM"
CC[C@@]1(c2cccc(-c3cnn4ccncc34)c2)C2=C(CC(C)(C)NC2=O)Nc2n[nH]cc21 [Compound 949263],,,,,"IC50 [1, 9]: > 5000 nM; IC50 [2, 10]: > 5000 nM"
CC[C@@]1(c2cccc(-c3cnn(-c4ccccn4)c3)c2)C2=C(CC(C)(C)NC2=O)Nc2n[nH]cc21 [Compound 949264],,,,,"IC50 [1, 9]: > 5000 nM; IC50 [2, 10]: > 5000 nM"
CCC1(c2cccc(-c3cn(C)nc3C(F)(F)F)c2)C2=C(CC(C)(C)NC2=O)Nc2n[nH]cc21 (centres unmarked) [Compound 949266],,,,,"IC50 [1, 9]: ≤ 100 nM; IC50 [2, 10]: 100 to 1000 nM"

# More lines, main results first:
"IC50 [1, 3]","IC50 [2, 4]","IC50 [1, 7]","IC50 [2, 8]",SMILES,further results
100 to 1000 nM,1000 to 5000 nM,,,CC[C@]1(c2cccc(N3CCCCC3)c2)C2=C(CC(C)(C)NC2=O)Nc2n[nH]c(C(F)(F)F)c21 [Compound 949178],
100 to 1000 nM,> 5000 nM,,,CC[C@]1(c2cccc(N(C)c3ncccn3)c2)C2=C(CC(C)(C)NC2=O)Nc2n[nH]cc21 [Compound 949179],
,,≤ 100 nM,100 to 1000 nM,CCC1(c2cccc(N(C)c3ncccn3)c2)C2=C(CC(C)(C)NC2=O)Nc2n[nH]c(C(F)(F)F)c21 (centres unmarked) [Compound 949181],
≤ 100 nM,≤ 100 nM,,,CCC1(c2cccc(N(C)c3ncccn3)c2)C2=C(CC(C)(C)NC2=O)Nc2n[nH]c(C)c21 (centres unmarked) [Compound 949182],
≤ 100 nM,≤ 100 nM,≤ 100 nM,100 to 1000 nM,CCC1(c2cccc(N3CCCCC3)c2)C2=C(CC(C)(C)NC2=O)Nc2n[nH]c(C(F)(F)F)c21 (centres unmarked) [Compound 949183],
,,≤ 100 nM,1000 to 5000 nM,CC[C@@]1(c2cccc(-c3cn(C)nc3C)c2)C2=C(CC(C)(C)NC2=O)Nc2n[nH]c(F)c21 [Compound 949185],"IC50 [1, 9]: ≤ 100 nM; IC50 [2, 10]: ≤ 100 nM"
